Data set [1] concerns A549 cells. Briefly: MTT cytotoxicity assay, A549. The class given is cell-based. As to conditions: Homo sapiens, 72 h, mean ± SD of three independent experiments. On the procedure: (§1) HCT116, SKOV-3, A549, A2780, HepG2, HL-60 and MCF-7 cells were incubated in DMEM with 10% heat-inactivated FBS in a humidified atmosphere of 5.0% CO2 at 37 °C. The in-vitro cytotoxicity of AA derivatives was determined using MTT assay. A 100-μL volume of culture medium at a concentration of 3 × 10^4 cell/mL was added to 96-well plate wells, which were maintained in a humidified atmosphere of 5.0% CO2 at 37 °C. After 24 h, 10 μL solution of AA derivatives and doxorubicin dissolved in DMSO and phophate buffered saline (PBS) and then diluted with DMEM under a concentration gradient, was added in the wells for final concentrations of 100, 10, 1, 0.1, 0.01, 0.001 μM of compounds in HCT116 and SKOV-3 cells and 125, 25, 5, 1, 0.2, 0.04 μM in A549, A2780, HepG2, HL-60 and MCF-7 cells. After 72 h incubation in a humidified atmosphere of 5.0% CO2 at 37 °C, 20 μl MTT solution (5 mg/mL) was added into each well and the cells were incubated. After 4 h, 100 μL HCl aqueous solution (0.01 M) with 10% SDS and 5% isobutanol was added into each well to dissolve the precipitated formazan and the absorbance was read at 570 nm on Thermo Scientific Varioskan Flash plate reader. All IC50 values were averaged from three independent experiments.

For data set [2], the system named is A2780 cells. Briefly: MTT cytotoxicity assay, A2780. The class given is cell-based. As to conditions: Homo sapiens, 72 h, mean ± SD of three independent experiments. How it is done:
as §1
A general note: Tetrazolium dyes change colour on reduction, which living cells bring about.

Data set [3] deals with HepG2 cells. Briefly: MTT cytotoxicity assay, HepG2. The class given is cell-based. As to conditions: Homo sapiens, 72 h, mean ± SD of three independent experiments. How it is done: as §1
Data set [4] has as its system HL-60 cells. Briefly: MTT cytotoxicity assay, HL-60. The class given is cell-based. As to conditions: Homo sapiens, 72 h, mean ± SD of three independent experiments. How it is done: as §1
Data set [5] has as its system MCF-7 cells. Briefly: MTT cytotoxicity assay, MCF-7. The class given is cell-based. To be noted: Homo sapiens, MCF7, 72 h, mean ± SD of three independent experiments. How it is done: as §1
Data set [6] concerns human normal cell line (HUVEC). Briefly: CCK-8 cytotoxicity assay, human normal cell line HUVEC. The class given is cell-based. As to conditions: for cytotoxic effect on HUVEC cell viability: CCK-8, concentrations of 125, 25, 5, 1, 0.2, 0.04 μM, 72 h; for IC50: HUVEC, CCK-8, 72 h, human normal cell line. On the procedure: Additionally, the cytotoxic activities of compounds 10, 14j and 14k were evaluated against one human normal cell line (HUVEC) using CCK-8 assay (Table 3).
HUVEC cell lines were incubated in DMEM with 10% heat-inactivated FBS in a humidified atmosphere of 5.0% CO2 at 37 °C. The in-vitro cytotoxicity of AA derivatives was determined using CCK-8. A 100-μL volume of culture medium at a concentration of 3 × 10^4 cell/mL was added to 96-well plate wells, and these were maintained in a humidified atmosphere of 5.0% CO2 at 37 °C. After 24 h, 10 μL solution of AA derivatives dissolved in DMSO and PBS and then diluted with DMEM under a concentration gradient was added to the wells for final concentrations of 125, 25, 5, 1, 0.2, 0.04 μM. After 72 h incubation in a humidified atmosphere of 5.0% CO2 at 37 °C, 10 μl CCK-8 solution was added into each well and the cells were incubated for another 1 h, and the absorbance was read at 450 nm. All cell viability levels were averaged from three independent experiments.

Data set [7] deals with human ovarian cancer cells (A2780). Also on record: method as in PMID 27416552, PMID 24268794. To be noted: read-out: EC50 against human ovarian cancer cells (A2780); cited from earlier work.
Data set [8] deals with human colon (HCT-116) cancer cell line. Briefly: MTT cytotoxicity assay, HCT116. The class given is cell-based. As to conditions: for IC50: Homo sapiens, HCT-116, 72 h, six concentrations, mean ± SD of three independent experiments; for fold more active than AA against HCT116 cell line: relative to AA. How it is done:
(§2) To establish a SAR of the C-3 (R2) and C-23 (R1) of the AA derivatives, new compounds were subjected to MTT assays to evaluate their in-vitro antiproliferative activities against ovarian (SKOV-3) and colon (HCT-116) cancer cell lines, the IC50 values (the concentration that inhibits 50% of cell growth) of which are summarized in Table 1. Doxorubicin was used as the positive drug.
as §1

For data set [9], the system named is human ovarian (SKOV-3) cancer cell line. Briefly: MTT cytotoxicity assay, SKOV-3. As to conditions: for IC50: Homo sapiens, SK-OV-3, 72 h, six concentrations, mean ± SD of three independent experiments. It counts as cell-based. How it is done:
as §2, §1

Data set [10] concerns A549 cells. Set-up: method as in PMID 31057738. To be noted: literature value for AA; cited from earlier work.
Data set [11] deals with A2780 cells. Also on record: method as in PMID 30278332. To be noted: literature value for AA; cited from earlier work.
The subject of data set [12] is HepG2 cells. Set-up: method as in PMID 31057738. As to conditions: literature value for AA; cited from earlier work.
Data set [13] has as its system MCF-7 cells. Set-up: method as in PMID 26974379. To be noted: literature value for AA; cited from earlier work.
The test system of data set [14] is human normal cell line (HUVEC). Set-up: method as in PMID 25151580. As to conditions: literature value for AA; cited from earlier work.

Each structure is given as a SMILES string. Where two headings read alike, the source gives them in different places.

On to `CO[C@@H]1C[C@@]2(C)[C@@H](CC[C@]3(C)[C@@H]2CC=C2[C@@H]4[C@@H](C)[C@H](C)CC[C@]4(C(=O)NCc4ccccc4)CC[C@]23C)[C@](C)(C(=O)N2CCN(C)CC2)[C@H]1OC(C)=O` [Compound 14k, α-Methoxy-3β-Acetoxy-Urs-12-Ene-28-Benzylamide-23-(4-Methyl-1-Piperazinyl)-Amide], for which the IC50 in data set [1] is 4.04 ± 0.51 µM; in data set [2], 4.31 ± 0.58 µM; in data set [3], 2.84 ± 0.46 µM; in data set [4] it was 3.36 ± 0.66 µM; in [5], 1.78 ± 0.38 µM; in [6], more than 125 µM. The “cytotoxic effect on HUVEC cell viability” value in [6] is given as “no cytotoxic effect”.

Take `CC(=O)O[C@@H]1C[C@]2(C)[C@H]3CC=C4[C@@H]5CC(C)(C)CC[C@]5(C(=O)NCc5ccccc5)CC[C@@]4(C)[C@]3(C)CC[C@H]2C(C)(C)[C@H]1OC(C)=O` [EM2]: the EC50 in [7] is 0.5 µM.

For the molecule `COC(=O)[C@@]1(C)[C@@H]2CC[C@]3(C)[C@H](CC=C4[C@@H]5[C@@H](C)[C@H](C)CC[C@]5(C(=O)NCc5ccccc5)CC[C@]43C)[C@@]2(C)C[C@@H](OC)[C@@H]1OC(C)=O` [Compound 10, α-Methoxy-3β-Acetoxy-Urs-12-Ene-28-Benzylamide-23-Methyl Ester], the IC50 was 1.08 ± 0.66 µM in data set [8] (MTT); more than 125 µM in data set [1]; 1.28 ± 0.32 µM in [2]; 1.43 ± 0.32 µM in [3]; 0.47 ± 0.08 µM in [4]; 3.99 ± 1.21 µM in [5]. In addition, the IC50 in [6] was more than 125 µM. Besides, the “fold more active than AA against HCT116 cell line” value in [8] came out at 23 fold. For the same molecule, the “cytotoxic effect on HUVEC cell viability” value in data set [6] was “no cytotoxic effect”.

Consider `CO[C@@H]1C[C@@]2(C)[C@@H](CC[C@]3(C)[C@@H]2CC=C2[C@@H]4[C@@H](C)[C@H](C)CC[C@]4(C(=O)NCc4ccccc4)CC[C@]23C)[C@](C)(C(=O)N2CCN(C)CC2)[C@H]1O` [Compound 13k, α-Methoxy-3β-Hydroxy-Urs-12-Ene-28-Benzylamide-23-(4-Methyl-1-Piperazinyl)-Amide], for which the IC50 in data set [1] was found to be 5.7 ± 0.58 µM; in data set [2], 13 ± 1.18 µM; in [3] it was 2.22 ± 0.68 µM; in data set [4], 10.7 ± 2.08 µM; in data set [5], 2.85 ± 0.25 µM.

Regarding `CO[C@@H]1C[C@@]2(C)[C@@H](CC[C@]3(C)[C@@H]2CC=C2[C@@H]4[C@@H](C)[C@H](C)CC[C@]4(C(=O)NCc4ccccc4)CC[C@]23C)[C@](C)(C(=O)N(C)C)[C@H]1OC(C)=O` [Compound 14j, α-Methoxy-3β-Acetoxy-Urs-12-Ene-28-Benzyl Amide-23-Dimethylamide], the IC50 in data set [8] (MTT) was determined as 1.83 ± 0.91 µM; in data set [1], 6.72 ± 0.64 µM; in [2], 2.24 ± 0.52 µM; in data set [3], 3.77 ± 1.22 µM; in data set [4] it was 3.01 ± 0.44 µM; in data set [5], 5.89 ± 1.33 µM. Also, the 50% inhibitory concentration (IC50) in data set [6] was more than 125 µM. Besides, the “cytotoxic effect on HUVEC cell viability” value in data set [6] is reported as “no cytotoxic effect”.

On to `COC(=O)[C@@]1(C)[C@@H]2CC[C@]3(C)[C@H](CC=C4[C@@H]5[C@@H](C)[C@H](C)CC[C@]5(C(=O)NCc5ccccc5)CC[C@]43C)[C@@]2(C)C[C@@H](OC)[C@@H]1O` [Compound 9, α-Methoxy-3β-Hydroxy-Urs-12-Ene-28-Benzylamide-23-Methyl Ester], for which the IC50 in data set [9] (MTT) is 6.81 ± 3.87 µM; in data set [8] (MTT), 3.07 ± 1.48 µM. For the same molecule, in [9] (relative to AA), the “fold more active than AA against SKOV-3 cell line” value came out at 3 fold. Besides, the “fold more active than AA against HCT116 cell line” value in data set [8] stood at 8 fold.

Take `COC(=O)C(NC(=O)C1(C)C(OC(C)=O)C(OC)CC2(C)C1CCC1(C)C2CC=C2C3C(C)C(C)CCC3(C(=O)NCc3ccccc3)CCC21C)C(C)C` [Compound 14g, N-(2α-Methoxy-3β-Acetoxy-Urs-12-Ene-28-Benzylamide-23-Oyl)-L-Valine Methyl Ester]: the IC50 in data set [9] (MTT) and in data set [8] (MTT) was more than 100 µM throughout.

Take `C[C@H]1[C@H](C)CC[C@]2(C(=O)O)CC[C@]3(C)C(=CC[C@@H]4[C@@]5(C)C[C@@H](O)[C@H](O)[C@@](C)(CO)[C@@H]5CC[C@]43C)[C@H]12` [AA, 2α,3β,23-trihydroxyurs-12-ene-28-oic acid]: the IC50 was 20.5 ± 4.06 µM in data set [9] (MTT); 24.6 ± 3.26 µM in data set [8] (MTT); 41 ± 0.87 µM in data set [10]; 28.2 ± 0.3 µM in data set [11]; 35.4 ± 1.47 µM in data set [12]; 68.5 ± 2.5 µM in data set [13]. In addition, in [14], the IC50 is more than 100 µM.

On to `COC(=O)[C@]1(C)C(=O)[C@H](OC)C[C@]2(C)[C@H]3CC=C4[C@@H]5[C@@H](C)[C@H](C)CC[C@]5(C(=O)NCc5ccccc5)CC[C@@]4(C)[C@]3(C)CC[C@@H]12` [Compound 11, α-Methoxy-3-Oxo-Urs-12-Ene-28-Benzyl Amide-23-Methyl Ester], for which, in [9] (MTT), the IC50 was more than 100 µM and the “cytotoxic activity against SKOV-3 cell line (in words)” value is listed as “lost activity”. Moreover, in data set [8] (MTT), the IC50 is more than 100 µM and the “cytotoxic activity against HCT116 cell line (in words)” value was “lost activity”.

Regarding `CO[C@@H]1C[C@@]2(C)[C@@H](CC[C@]3(C)[C@@H]2CC=C2[C@@H]4[C@@H](C)[C@H](C)CC[C@]4(C(=O)NCc4ccccc4)CC[C@]23C)[C@](C)(C(N)=O)[C@H]1OC(C)=O` [Compound 14a, α-Methoxy-3β-Acetoxy-Urs-12-Ene-28-Benzyl Amide-23-Amide], the IC50 worked out at 7.12 ± 2.61 µM in data set [9] (MTT) and 6.52 ± 3.03 µM in data set [8] (MTT).

For the molecule `CCOC(=O)CCCNC(=O)[C@@]1(C)[C@@H]2CC[C@]3(C)[C@H](CC=C4[C@@H]5[C@@H](C)[C@H](C)CC[C@]5(C(=O)NCc5ccccc5)CC[C@]43C)[C@@]2(C)C[C@@H](OC)[C@@H]1OC(C)=O` [Compound 14i, N-(2α-Methoxy-3β-Acetoxy-Urs-12-Ene-28-Benzylamide-23-Oyl)-4-Aminobutyric Ethyl Ester], the IC50 in data set [9] (MTT) and in [8] (MTT) was more than 100 µM each time.

On to `C#CCNC(=O)[C@@]1(C)[C@@H]2CC[C@]3(C)[C@H](CC=C4[C@@H]5[C@@H](C)[C@H](C)CC[C@]5(C(=O)NCc5ccccc5)CC[C@]43C)[C@@]2(C)C[C@@H](OC)[C@@H]1O` [Compound 13e, α-Methoxy-3β-Hydroxy-Urs-12-Ene-28-Benzyl Amide-23-Propargylamide], for which the IC50 was 6.72 ± 4.32 µM in data set [9] (MTT) and 8.03 ± 2.79 µM in data set [8] (MTT).

Broadly, the IC50 is the concentration needed to halve the response being measured. What is called EC50 is the concentration that produces a half-maximal response.
